# From ChEMBL document CHEMBL4837235, “Cyclic Imine Pinnatoxin G is Cytotoxic to Cancer Cell Lines via Nicotinic Acetylcholine Receptor-Driven Classical Apoptosis” (2021)
# Activity calls are given as the source filed them. The calls are words filed in the database; no cut-off is given here.
# How the values were obtained:
# PC-3 [1] = test: Cytotoxicity against human PC-3 cells assessed as reduction in cell viability at 5 uM after 72 hrs by MTT assay; assay type: functional
# MDA-MB-231 [2] = test: Cytotoxicity against human MDA-MB-231 cells assessed as reduction in cell viability at 5 uM after 72 hrs by MTT assay; assay type: functional
# U-87 MG [3] = test: Cytotoxicity against human U87 cells assessed as reduction in cell viability at 5 uM after 72 hrs by MTT assay; assay type: functional, U-87MG ATCC
# LN-18 [4] = test: Cytotoxicity against human LN-18 cells assessed as reduction in cell viability at 5 uM after 72 hrs by MTT assay; assay type: functional
# [5] = Cytotoxicity against human U373 cells assessed as reduction in cell viability at 5 uM after 72 hrs by MTT assay; assay type: functional, U-373MG ATCC; details: U373 MG
# HT-29 [6] = test: Cytotoxicity against human HT-29 cells assessed as reduction in cell viability at 5 uM after 72 hrs by MTT assay; assay type: functional
# MDA-MB-231 [7] = test: Cell cycle arrest in human MDA-MB-231 cells assessed as accumulation of cells at G0/G1 phase at 5 uM after 72 hrs by propidium iodide staining based flow cytometric analysis (reference value: 57.7+/- 0.6%); assay type: functional
# PC-3 [8] = test: Cell cycle arrest in human PC-3 cells assessed as accumulation of cells at G0/G1 phase at 5 uM after 72 hrs by propidium iodide staining based flow cytometric analysis (reference value: 59.7+/- 0.2%); assay type: functional
# HT-29 [9] = test: Cell cycle arrest in human HT-29 cells assessed as accumulation of cells at S phase at 5 uM after 72 hrs by propidium iodide staining based flow cytometric analysis (reference value: 5.3+/- 0.4%); assay type: functional
# HT-29 [10] = test: Cell cycle arrest in human HT-29 cells assessed as accumulation of cells at G2/M phase at 5 uM after 72 hrs by propidium iodide staining based flow cytometric analysis (reference value: 22.3+/- 0.4%); assay type: functional
# MDA-MB-231 [11] = test: Cell cycle arrest in human MDA-MB-231 cells assessed as accumulation of cells at subG1 phase at 5 uM after 72 hrs by propidium iodide staining based flow cytometric analysis (reference value: 1.1+/- 0.1%); assay type: functional
# HT-29 [12] = test: Cell cycle arrest in human HT-29 cells assessed as accumulation of cells at subG1 phase at 5 uM after 72 hrs by propidium iodide staining based flow cytometric analysis (reference value: 1.9+/- 0.1%); assay type: functional
# PC-3 [13] = test: Cell cycle arrest in human PC-3 cells assessed as accumulation of cells at subG1 phase at 5 uM after 72 hrs by propidium iodide staining based flow cytometric analysis (reference value: 3.7+/- 0.2%); assay type: functional
# MDA-MB-231 [14] = test: Induction of apoptosis in human MDA-MB-231 cells assessed as caspase activation using Ac-DEVD-AMC as substrate at 5 uM measured after 72 hrs by fluorometric assay relative to control; assay type: functional
# PC-3 [15] = test: Induction of apoptosis in human PC-3 cells assessed as caspase activation using Ac-DEVD-AMC as substrate at 5 uM measured after 72 hrs by fluorometric assay relative to control; assay type: functional
# HT-29 [16] = test: Induction of apoptosis in human HT-29 cells assessed as caspase activation using Ac-DEVD-AMC as substrate at 5 uM measured after 72 hrs by fluorometric assay relative to control; assay type: functional
# MDA-MB-231 [17] = test: Induction of apoptosis in human MDA-MB-231 cells assessed as early apoptosis at 5 uM measured after 72 hrs by AnnexinV/propidium iodide staining based flow cytometry; assay type: functional
# HT-29 [18] = test: Induction of apoptosis in human HT-29 cells assessed as early apoptosis at 5 uM measured after 72 hrs by AnnexinV/propidium iodide staining based flow cytometry; assay type: functional
# PC-3 [19] = test: Induction of apoptosis in human PC-3 cells assessed as early apoptosis at 5 uM measured after 72 hrs by AnnexinV/propidium iodide staining based flow cytometry; assay type: functional
# MDA-MB-231 [20] = test: Induction of mitochondrial membrane permeability in human MDA-MB-231 cells assessed as mitochondrial membrane permeability at 5 uM measured after 72 hrs by TMRE staining based analysis (reference value: 7%); assay type: functional
# HT-29 [21] = test: Induction of mitochondrial membrane permeability in human HT-29 cells assessed as mitochondrial membrane permeability at 5 uM measured after 72 hrs by TMRE staining based analysis (reference value: 7%); assay type: functional
# PC-3 [22] = test: Induction of mitochondrial membrane permeability in human PC-3 cells assessed as mitochondrial membrane permeability at 5 uM measured after 72 hrs by TMRE staining based analysis (reference value: 7%); assay type: functional
# [23] = target: T1, Neuronal acetylcholine receptor (Homo sapiens) (UniProt P17787+P30926+P32297+P43681+Q15822+Q9UGM1+Q15825+P30532+P36544+Q9GZZ6+Q05901); test: Antagonist activity at nAChR in human MDA-MB-231 cells assessed as reduction cytoplasmic free calcium level at 5 uM measured upto 6 hrs by Fura2-AM dye based fluorescence assay; assay type: cell-based; details: time hrs <=6
# [24] = target: T1, Neuronal acetylcholine receptor (Homo sapiens); test: Antagonist activity at nAChR in human HT-29 cells assessed as reduction in cytoplasmic free calcium level at 5 uM measured upto 6 hrs by Fura2-AM dye based fluorescence assay; assay type: cell-based; details: time hrs <=6
# [25] = target: T1, Neuronal acetylcholine receptor (Homo sapiens); test: Antagonist activity at nAChR in human PC-3 cells assessed as reduction in cytoplasmic free calcium level at 5 uM measured upto 6 hrs by Fura2-AM dye based fluorescence assay; assay type: cell-based; details: time hrs <=6
# N2a = test: Cytotoxicity against mouse Neuro2a cells assessed as cell viability at 0.46 uM measured after 72 hrs by MTT assay; assay type: functional, cell-based
# Caco-2 = test: Cytotoxicity against human Caco-2 cells assessed as cell viability at 0.46 uM measured after 72 hrs by MTT assay; assay type: functional, cell-based
# HeLa = test: Cytotoxicity against human HeLa cells assessed as loss of cell viability at 5.76 uM measured after 72 hrs by MTT assay; assay type: functional
# MDA-MB-231 [26] = test: Cell cycle arrest in human MDA-MB-231 cells assessed as decrease in accumulation of cells at G2/M phase at 5 uM after 72 hrs by propidium iodide staining based flow cytometric analysis; assay type: functional
# PC-3 [27] = test: Cell cycle arrest in human PC-3 cells assessed as decrease in accumulation of cells at G2/M phase at 5 uM after 72 hrs by propidium iodide staining based flow cytometric analysis; assay type: functional
# PC-3 [28] = test: Cytotoxicity against human PC-3 cells assessed as reduction in cell viability at 5 uM after 48 to 72 hrs by MTT assay; assay type: functional, cell-based; details: time 48-72 hrs
# MDA-MB-231 [29] = test: Cytotoxicity against human MDA-MB-231 cells assessed as reduction in cell viability at 5 uM after 48 to 72 hrs by MTT assay; assay type: functional, cell-based; details: time 48-72 hrs
# U-87 MG [30] = test: Cytotoxicity against human U87 cells assessed as reduction in cell viability at 5 uM after 24 to 72 hrs by MTT assay; assay type: functional, cell-based; details: U-87MG ATCC, time 24-72 hrs
# LN-18 [31] = test: Cytotoxicity against human LN-18 cells assessed as reduction in cell viability at 5 uM after 24 to 72 hrs by MTT assay; assay type: functional, cell-based; details: time 24-72 hrs
# U-373MG ATCC = test: Cytotoxicity against human U373 cells assessed as reduction in cell viability at 5 uM after 24 to 72 hrs by MTT assay; assay type: functional, cell-based; details: time 24-72 hrs
# HT-29 [32] = test: Cytotoxicity against human HT-29 cells assessed as reduction in cell viability at 5 uM after 24 to 72 hrs by MTT assay; assay type: functional, cell-based; details: time 24-72 hrs
# PC-3 [33] = test: Cytotoxicity against human PC-3 cells assessed as reduction in cell viability at 5 uM after 24 hrs by MTT assay; assay type: functional, cell-based
# MDA-MB-231 [34] = test: Cytotoxicity against human MDA-MB-231 cells assessed as reduction in cell viability at 5 uM after 24 hrs by MTT assay; assay type: functional, cell-based
structure (smiles),measurement,setting,value
C=CC1=C[C@@H]2[C@@H]3O[C@]4(C[C@H]5CCC[C@@]6(CC[C@@]7(O[C@@H](CC[C@@]7(C)O)CC(=C)CCCC7=NC[C@H](C)[C@@H](C)C[C@@]72CC1)O6)O5)C[C@@H](C)[C@@H](O)[C@H]3O4,inhibition at 5 µM,PC-3 [1],30%
same,inhibition at 5 µM,MDA-MB-231 [2],30%
same,inhibition at 5 µM,U-87 MG [3],30%
same,inhibition at 5 µM,LN-18 [4],50%
same,inhibition at 5 µM,[5],50%
same,inhibition at 5 µM,HT-29 [6],50%
same,Activity,MDA-MB-231 [7],62.4%
same,Activity,PC-3 [8],65.4%
same,Activity,HT-29 [9],8%
same,Activity,HT-29 [10],32.5%
same,Activity,MDA-MB-231 [11],4.5%
same,Activity,HT-29 [12],5.5%
same,Activity,PC-3 [13],9.7%
same,fold change (FC),MDA-MB-231 [14],5.5
same,fold change (FC),PC-3 [15],5.5
same,fold change (FC),HT-29 [16],10.5
same,Activity,MDA-MB-231 [17],13.7%
same,Activity,HT-29 [18],10.7%
same,Activity,PC-3 [19],13.9%
same,Activity,MDA-MB-231 [20],14.8%
same,Activity,HT-29 [21],17.9%
same,Activity,PC-3 [22],13.8%
same,inhibition,[23],23.6%
same,inhibition,[24],16.2%
same,inhibition,[25],14.2%
same,Activity,N2a,inactive
same,Activity,Caco-2,inactive
same,Activity,HeLa,27%
same,Activity,MDA-MB-231 [26],Active
same,Activity,PC-3 [27],Active
same,Activity,PC-3 [28],Active
same,Activity,MDA-MB-231 [29],Active
same,Activity,U-87 MG [30],Active
same,Activity,LN-18 [31],Active
same,Activity,U-373MG ATCC,Active
same,Activity,HT-29 [32],Active
same,Activity,PC-3 [33],inactive
same,Activity,MDA-MB-231 [34],inactive
